Where “and” joins values, the source holds several entries; their conditions need not be identical. Equal entries are not always repeated. Entries after “also recorded” stand apart in the source; their conditions may differ. Bounds are passed on as bounds.

Test [1] relates to HA-MRSA. Description: MIC (CLSI broth dilution), agent alone. The class given is cell-based, Staphylococcus aureus. To be noted: agent alone. Here is the method: (§1) VISA (strains 92, 95 and 96), VRSA (strains 105 and 106) and E. coli (strain 69717) isolates were also tested. One MSSA was used as a control. All MICs were assessed using CLSI guidelines. Also assessed was the activity of cefazolin, ceftriazone, meropenem, and a piperacillin/tazobactam combination antibiotic. Minimum inhibitory concentration (MIC) is the lowest concentration of an antimicrobial that will inhibit the visible growth of a microorganism after incubation.
(§2) Antimicrobial Susceptibility Testing: A custom designed panel of antimicrobials was created. […] These agents were obtained as laboratory grade powders from their respective manufacturers. Stock solutions were prepared and dilutions made as described by the Clinical Laboratory Standards Institute (2005 CLSI). Following two subcultures from frozen stock the MICs of the antimicrobial agents for the isolates were determined by the CLSI 2005 approved broth macrodilution method. Briefly, test tubes containing doubling antibiotic dilutions (2 ml per tube) of cation adjusted Mueller-Hinton broth (eg. for Enterobacteriaceae) with or without lysed horse blood (2-5% V/V) [eg. for S. pneumoniae] were inoculated to achieve a final concentration of approximately 5×10^5 CFU/ml and incubated in ambient air for 24 hours prior to reading. Colony counts were performed periodically to confirm inocula. Quality control was performed every two weeks using a variety of ATCC QC organisms including; S. aureus 29213, E. faecalis 29212, E. coli 25922 and P. aeruginosa 27853.
(§3) One MSSA was used as a control. All MICs were assessed using CLSI guidelines.
(§4) One MS SA and ATCC reference strains were used as controls. All MICs were assessed using CLSI guidelines.

Test [2] deals with CA-MRSA. Kind of test: MIC (CLSI broth dilution), agent alone. The class given is cell-based, Staphylococcus aureus. The note with it: agent alone. Here is the method: as §1, §2, §3, §4
The next test concerns MSSA. Kind of test: MIC (CLSI broth dilution), agent alone. It is filed as cell-based, Staphylococcus aureus. To be noted: MSSA 79333, agent alone. Here is the method:
as §1, §2, §3, §4

A further test relates to VISA. Description: MIC (CLSI broth dilution), agent alone. It is filed as cell-based, Staphylococcus aureus. Set-up: unit: µg/mL. Here is the method: as §1
(§5) Antimicrobial Susceptibility Testing: A custom designed panel of antimicrobials was created. The panel included: PEP35, penicillin, piperacillin/tazobactam, cefazolin, ceftriaxone, meropenem, clarithromycin, clindamycin, gentamicin, amikacin, vancomycin, ciprofloxacin, levofloxacin, moxifloxacin, linezolid, trimethoprim/sulfamethoxazole and doxycycline. These agents were obtained as laboratory grade powders from their respective manufacturers. Stock solutions were prepared and dilutions made as described by the Clinical Laboratory Standards Institute (2005 CLSI). Following two subcultures from frozen stock the MICs of the antimicrobial agents for the isolates were determined by the CLSI 2005 approved broth macrodilution method. Briefly, test tubes containing doubling antibiotic dilutions (2 ml per tube) of cation adjusted Mueller-Hinton broth (eg. for Enterobacteriaceae) with or without lysed horse blood (2-5% V/V) [eg. for S. pneumoniae] were inoculated to achieve a final concentration of approximately 5×10^5 CFU/ml and incubated in ambient air for 24 hours prior to reading. Colony counts were performed periodically to confirm inocula. Quality control was performed every two weeks using a variety of ATCC QC organisms including; S. aureus 29213, E. faecalis 29212, E. coli 25922 and P. aeruginosa 27853. For all antimicrobials as well as PEP35, CLSI criteria were used.
as §3

For test [3], the system named is VRSA. Kind of test: MIC (CLSI broth dilution), agent alone. It is filed as cell-based, Staphylococcus aureus. Set-up: unit not given beside the values. Here is the method:
as §1, §5, §3

Test [4] relates to MRSA, VISA, VRSA and E. coli. Description: MIC, agent alone, panel statement. It is filed as cell-based. To be noted: versus MRSA, VISA, VRSA and E. coli. On the procedure:
as §1, §5

The test system of test [5] is HA-MRSA. Description: Antibiotic MIC with fixed concentration of peptide. The class given is cell-based, Staphylococcus aureus. To be noted: HA-MRSA strains; Table 13. On the procedure:
as §3, §4

In test [6] the test system is CA-MRSA. Kind of test: Antibiotic MIC with fixed concentration of peptide. To be noted: versus CA-MRSA; Table 13. The class given is cell-based, Staphylococcus aureus. Here is the method: as §3, §4
Test [7] relates to MRSA, VISA, VRSA and E. coli. Description: Checkerboard assay, panel statement. To be noted: with β-lactams versus MRSA, VISA, VRSA and E. coli. The class given is cell-based. Here is the method: Checkerboard assays were carried out as described by Bonapace et al.
Diagnostic Microbiology and Infectious Diseases 2002; 44:363-366. In brief, checkerboard assays were performed in 96 well microtitre trays using an 8-by-8 well configuration. […] 96-well custom designed microtitre plates contained 100 ul/well of cation adjusted Mueller-Hinton broth (eg. for Enterobacteriaceae) with or without lysed horse blood (2-5% V/V) [eg. for S. pneumoniae] and were inoculated to achieve a final concentration of approximately 5×10^5 CFU/ml and incubated in ambient air for 24 hours prior to reading. Colony counts were performed periodically to confirm inocula. Quality control was performed every two weeks using a variety of ATCC QC organisms including; S. pneumoniae 49619, S. aureus 29213, E. faecalis 29212, E. coli 25922 and P. aeruginosa 27853. […] All peptides were assessed for synergy with β-lactams and vancomycin. For all antimicrobials as well as the peptides, CLSI criteria were used.
The fractional inhibitory concentration index (FIC index) was used to interpret synergy, antagonism or additivity/indifference. FIC index=FIC of drug A+FIC of drug B where:
The FIC of drug A and drug B was calculated as follows, FIC drug A=MIC of drug A in combination/MIC of drug A alone and FIC of drug B=MIC of drug B in combination/MIC of drug B alone. Synergy was defined as FIC index ≦0.5, additivity/indifference defined as a FIC between 0.5 and 4 and antagonism defined as an FIC index >4.
The fractional inhibitory concentration index (FIC index) was used to interpret synergy, antagonism or additivity/indifference. FIC index=FIC of drug A+FIC of drug B where the FIC of drug A and drug B was calculated as follows, FIC drug A=MIC of drug A in combination/MIC of drug A alone and FIC of drug B=MIC of drug B in combination/MIC of drug B alone. Synergy was defined as FIC index ≦0.5, additivity/indifference defined as an FIC of between 0.5 and 4 and antagonism defined as an FIC index >4.

A further test has as its system E. coli. Kind of test: MIC (CLSI broth dilution), agent alone. To be noted: agent alone. It is filed as cell-based, Escherichia coli. Here is the method:
as §1, §5, §4

The test system of test [8] is VRSA. Description: Antibiotic MIC with fixed concentration of peptide. It is filed as cell-based, Staphylococcus aureus. To be noted: VISA and VRSA; Table 13. On the procedure:
as §3

Regarding “LKQKIKHVVKLKVVVKLRSQLAKKKQS (hybPEP35-1 conservative substitution human peptide variant) [human peptide variant of PEP35 with conservative substitutions]”, the MIC in the test on HA-MRSA [1] (HA-MRSA 70798 (USA100/800), in µg/mL) was > 2048 and 1024; with HA-MRSA [1] (HA-MRSA 77090 (USA100/800), in µg/mL), 1024 and 512; in the test with HA-MRSA [1] (HA-MRSA 77098 (USA100/800)), “≧2048/2048^”; in the test with CA-MRSA [2] (CA-MRSA 69615 (USA400)), 1024/1024; in the test with CA-MRSA [2] (CA-MRSA 70857 (USA400)), 1024/1024; in the test on MSSA it was 128/128. In addition, the MIC in the test on MSSA (in µg/mL) was 256; in the test with VISA (VISA 92), >2048/>2048; in the test with VISA (VISA 95), >2048/2048; in the test on VISA (VISA 96, in µg/mL), 1024; in the test on VISA (VISA 96, listed as hybPEP35, in µg/mL), 1024 and 2048; with VRSA [3] (VRSA 105) it was 128/128. For the same sequence, the MIC is 256 and 128 in the test on VRSA [3] (VRSA 105, in µg/mL); 256 with VRSA [3] (VRSA 106, in µg/mL); 128 and 256 in the test with VRSA [3] (VRSA 106, listed as hybPEP35, in µg/mL); 64 in the test with E. coli (E. coli 69716, listed as hybPEP35-1, in µg/mL); 128 and 64 in the test on E. coli (E. coli 69716, listed as hybPEP35, in µg/mL); 64/64 with E. coli (E. coli 70752). In addition, the MIC in the test with E. coli (E. coli 70752, in µg/mL) stood at 32. For the same sequence, the “activity (in words)” value in [4] is listed as “no activity; also recorded: not active”. The “synergy with β-lactams (in words)” value in the test on HA-MRSA [5] is “weak synergy; also recorded: stronger synergy”; in the test on CA-MRSA [6], “Strong synergy”; in the test with VRSA [8], “mild to strong”. For the same sequence, in test [7], the “synergistic activity (in words)” value is recorded as “synergistic activity”.

The values are drawn from patent publication US9751919B2, “Antimicrobial compositions comprising a hyaluronic acid binding peptide and a β-lactam antibiotic” (priority 2012, dated 2017).
